“Also recorded” adds a separate entry of the source. Peptide text beside a SMILES is read from it. * marks the point of attachment. Cbz = O=C(OCc1ccccc1)*
Experiments:
CRBN = CRBN protein level in HCC cells Focus and JHH4 (western blot / proteomic preparation); assay type: cell-based; conditions: for level of CRBN (western blot): FIG. 4B; for level of CRBN protein: control plate and proteomic preparation
Description: Both HCC cells, Focus and JHH4 in 3D setting, were cultured continuously for 15 days treated with either DMSO or Compound A, or were first cultured for about 7 days prior to treatment with either DMSO or Compound A for 24 hours or 72 hours. Cells were harvested and proteins were prepared from the cells for proteomics analysis. The growth of the cells on control plates was also analyzed. In particular, cells were plated in media containing either DMSO or Compound A. Cells were cultured for certain time, and then were harvested onto filter plates. After the plates have dried, scintillation fluid was added to the plates and read on a Top-count reader. HCC cells from both Focus and JHH4 cell lines in 2D setting treated with Compound A for 6 hours, 24 hours, and 72 hours, and JHH4 cells in 3D setting treated with Compound A for 15 days were also analyzed by western blot. Cells were harvested and were treated in 200 μl cold cell lysis buffer (1% Triton X-100 from Cell Signaling supplemented with protease inhibitors and phophatase inhibitors from Roche) to generate cell lysate. Proteins from cell lysate were separated by 4-12% Nupage gels (Invitrogen) and transferred to nitrocellulose membranes. Immunoblots were then probed with antibodies recognizing CRBN, ZFP91 (LSBio), P-TBK1, and β-actin (Li-Cor). Signals were detected with a Li-Cor Odyssey Imager. As shown, the level of ZFP91 reduced in response to treatment with Compound A for 6 hours, 24 hours, or 72 hours in both cell lines in 2D setting. […] The level of CRBN increased in response to treatment with Compound A for 6 hours, 24 hours, or 72 hours in both cell lines in 2D setting. […] ZFP91 degradation induced by various doses of Compound A for various time periods was also tested in both Focus and JHH4 cells, as shown in FIG. 4C.

ZFP91 [1] = test: ZFP91 protein level in Hep3B cells (western blot); assay type: cell-based, human; conditions: for ZFP91 level (western blot): FIG. 6A upper panel; for effect on reduction of ZFP91 level in response to Compound A or Compound B: FIG. 6A lower panel
Description: The change of ZFP91 level in response to Compound A or Compound B treatments was also evaluated in human hepatoma Hep3B cell lines. Hep3B cells were treated with Compound A or Compound B, and cells were harvested and treated in lysis buffer to generate cell lysate. Proteins from cell lysate were separated by electrophoresis gel and transferred to nitrocellulose membranes. Immunoblots were then probed with antibodies recognizing CRBN, ZFP91, and β-actin. Signals were detected with a Li-Cor Odyssey Imager. The results were shown in the upper panel of FIG. 6A. […] Thus, ZFP91 may be degraded in response treatment compounds regardless of growth response of the cells to the treatment compounds.

ZFP91 [2] = test: Immunostaining of ZFP91 in U87 xenograft tissue; assay type: in vivo; conditions: FIG. 7B right panel
JHH4 cells = test: Colony growth on control plates, 3D culture; assay type: cell-based; conditions: JHH4, 3D, FIG. 3B
Focus cells = test: Colony growth on control plates, 3D culture; assay type: cell-based; conditions: FIG. 2B
Description: (§1) Both HCC cells, Focus and JHH4 in 3D setting, were cultured continuously for 15 days treated with either DMSO or Compound A, or were first cultured for about 7 days prior to treatment with either DMSO or Compound A for 24 hours or 72 hours. Cells were harvested and proteins were prepared from the cells for proteomics analysis. The growth of the cells on control plates was also analyzed. In particular, cells were plated in media containing either DMSO or Compound A. Cells were cultured for certain time, and then were harvested onto filter plates. After the plates have dried, scintillation fluid was added to the plates and read on a Top-count reader.

Hep3B cells = test: Growth response of Hep3B cells to treatment compounds; assay type: cell-based, human; conditions: FIG. 6B
ZFP91 [3] = test: ZFP91 protein level in HCC cells Focus and JHH4 (western blot / proteomic preparation); assay type: cell-based; conditions: for level of ZFP91 protein: control plate and proteomic preparation, beta-actin control; for effect on ZFP91 degradation induced by Compound A: 10 μM for 1 hour, then 5 μM Compound A for 6 hours, FIG. 5A
Description: as §1
Focus cells were cultured for 18 days either continuously for 18 days in the medium containing DMSO, Compound A, or Compound B, or cultured for 7 days prior to treating with DMSO, Compound A, or Compound B for 11 days. Then cells were harvested and were treated in 200 μl cold cell lysis buffer (1% Triton X-100 from Cell Signaling supplemented with protease inhibitors and phophatase inhibitors from Roche) to generate cell lysate. Proteins from cell lysate were separated by 4-12% nupage gels (Invitrogen) and transferred to nitrocellulose membranes. Immunoblots were then probed with antibodies recognizing CRBN, ZFP91 (LSBio) and β-actin (Li-Cor). Signals were detected with a Li-Cor Odyssey Imager. As shown, the level of ZFP91 reduced in response to treatment with Compound A or Compound B.
(§2) HCC cells from both Focus and JHH4 cell lines in 2D setting treated with Compound A for 6 hours, 24 hours, and 72 hours, and JHH4 cells in 3D setting treated with Compound A for 15 days were also analyzed by western blot. Cells were harvested and were treated in 200 μl cold cell lysis buffer (1% Triton X-100 from Cell Signaling supplemented with protease inhibitors and phophatase inhibitors from Roche) to generate cell lysate. Proteins from cell lysate were separated by 4-12% Nupage gels (Invitrogen) and transferred to nitrocellulose membranes. Immunoblots were then probed with antibodies recognizing CRBN, ZFP91 (LSBio), P-TBK1, and β-actin (Li-Cor). Signals were detected with a Li-Cor Odyssey Imager. As shown, the level of ZFP91 reduced in response to treatment with Compound A for 6 hours, 24 hours, or 72 hours in both cell lines in 2D setting. […] The level of CRBN increased in response to treatment with Compound A for 6 hours, 24 hours, or 72 hours in both cell lines in 2D setting. […] ZFP91 degradation induced by various doses of Compound A for various time periods was also tested in both Focus and JHH4 cells, as shown in FIG. 4C.
HCC cells from both Focus and JHH4 cell lines in 2D setting were first treated with 10 μM MG132 or MLN4924 for 1 hour, and then were treated with 5 μM DMSO or 5 μM Compound A for 6 hours. Cells were harvested and were treated in cell lysis buffer to generate cell lysate. Proteins from cell lysate were separated by gel electrophoresis and transferred to nitrocellulose membranes. Immunoblots were then probed with antibodies recognizing CRBN, ZFP91 (LSBio), and β-actin (Li-Cor). The results were shown in FIG. 5A, and as shown, both 10 μM MG132 or MLN4924 inhibited ZFP91 degradation. MG132 activates c-Jun N-terminal kinase (JNK1), which initiates apoptosis. […] MLN4924 is a NAE1 inhibitor that blocks the activity of Cullin Ring Ligases (CRLs), such as CRL4CRBN.

ZFP91 [4] = test: as above; assay type: cell-based; conditions: for level of ZFP91 in cells treated with cycloheximide (CHX): 100 ug/ml CHX, FIG. 5B; for effect of compound on ZFP91 degradation after knocking down of CRBN: FIG. 5C
U87 tumor = test: U87 xenograft tumor growth; assay type: in vivo; conditions: FIG. 7B left panel
[5] = test system: HCC cell lines (excised xenograft tumors of HAK-1AJ and Focus); test: Proteomic screening (TMT) of HCC cell lines after Compound A treatment; assay type: cell-based
Description: HCC cell lines (excised xenograft tumors of HAK-1AJ and Focus) were treated with either with DMSO, or Compound A for either once (single) or multiple times. Cells were harvested at 24 or 72 hours time points, and proteins were fractionated using a basic pH reverse gradient method. Fractionated samples were labeled using a Tandem Mass Tag (TMT) method. Relative abundance was calculated.

P-TBK1 = P-TBK1 level by western blot in HCC cells; assay type: cell-based; conditions: 3D setting; Compound A treatment
Description: as §2

ZFP91 [6] = test: ZFP91 protein level in glioblastoma cell lines U87 and SNB19 (western blot); assay type: cell-based, human; conditions: FIG. 7A
Description: The change of ZFP91 level in response to treatment compounds was evaluated in other solid tumor cell lines, e.g., giloblastoma (GBM) cell lines. […] Proteins from cell lysate were separated by electrophoresis gel and transferred to nitrocellulose membranes. Immunoblots were then probed with antibodies recognizing ZFP91 and β-actin. Signals were detected with a Li-Cor Odyssey Imager.

NF-κB activation = conditions: read-out: IC50 of inhibition of NF-κB activation; cited from earlier work
[7] = Focus cells, 18 days continuous or 7 days culture then 11 days treatment, FIG. 4A
[8] = proteomic screening vs DMSO, harvested at 24 or 72 hours

Cc1nc2cccc(N)c2c(=O)n1C1CCC(=O)NC1=O (centres unmarked) [Compound A, 3-(5-amino-2-methyl-4-oxo-4H-quinazolin-3-yl)-piperidine-2,6-dione]
level of CRBN (western blot) (CRBN; Focus, 2D setting, 6 hours, 24 hours, or 72 hours): increased | level of CRBN protein (CRBN; Focus, 3D, FIG. 2A): increased | level of CRBN (western blot) (CRBN; JHH4, 2D setting, 6 hours, 24 hours, or 72 hours): increased | level of CRBN (western blot) (CRBN; JHH4, 3D setting, 15 days): increased | level of CRBN protein (CRBN; JHH4, 3D, FIG. 3A): increased | ZFP91 level (western blot) (ZFP91 [1]): down-regulated | ZFP91 in U87 xenograft tissue (immunostaining) (ZFP91 [2]): degraded | colony number (JHH4 cells): reduced | total colony area (JHH4 cells): reduced | colony number (Focus cells): reduced | total colony area (Focus cells): reduced | sensitivity of Hep3B cells (growth response) (Hep3B cells): not | level of ZFP91 (western blot) (ZFP91 [3]; [7]): reduced | level of ZFP91 (western blot) (ZFP91 [3]; Focus, 2D setting, 6 hours, 24 hours, or 72 hours, FIG. 4B): reduced | level of ZFP91 protein (ZFP91 [3]; Focus, 3D, FIG. 2A): reduced | level of ZFP91 (western blot) (ZFP91 [3]; JHH4, 2D setting, 6 hours, 24 hours, or 72 hours, FIG. 4B): reduced | level of ZFP91 (western blot) (ZFP91 [3]; JHH4, 3D setting, 15 days, FIG. 4B): reduced | level of ZFP91 protein (ZFP91 [3]; JHH4, 3D, FIG. 3A): reduced | level of ZFP91 in cells treated with cycloheximide (CHX) (ZFP91 [4]; Focus): decreased | effect of compound on ZFP91 degradation after knocking down of CRBN (ZFP91 [4]; Focus, CRBN knock-down): reversed | level of ZFP91 in cells treated with cycloheximide (CHX) (ZFP91 [4]; JHH4): decreased | effect of compound on ZFP91 degradation after knocking down of CRBN (ZFP91 [4]; JHH4, CRBN knock-down): reversed | U87 tumor growth (U87 tumor; 3 mg/kg qd): significantly inhibits | U87 tumor growth (U87 tumor; 30 mg/kg qd): significantly inhibits | proteins commonly differentially abundant in both Focus and HAK-1AJ cell lines ([5]; 24 hours after treatment, FIG. 1C): WIBG, KAT1, Nestin, PARP4, and MVP | proteins downregulated in response to Compound A treatment [5, 8]: MVP, PARP4, ZFP91, and ZNF198 | proteins upregulated in response to Compound A treatment [5, 8]: Nestin, KAT1/CCBL1, and WIBG | P-TBK1 level (western blot) (P-TBK1): upregulated | ZFP91 level (western blot) (ZFP91 [6]; SNB19 cells): down-regulated | ZFP91 level (western blot) (ZFP91 [6]; U87 cells): down-regulated

O=C1CCC(N2Cc3c(OCc4ccc(CN5CCOCC5)cc4)cccc3C2=O)C(=O)N1 (centres unmarked) [Compound B, 3-[4-(4-Morpholin-4-ylmethyl-benzyloxy)-1-oxo-1,3-dihydro-isoindol-2-yl]-piperidine-2,6-dione]
ZFP91 level (western blot) (ZFP91 [1]): down-regulated | sensitivity of Hep3B cells (growth response) (Hep3B cells): sensitive | level of ZFP91 (western blot) (ZFP91 [3]; [7]): reduced | effect of compound on ZFP91 protein level after knocking down of CRBN (ZFP91 [4]; CRBN knock-down, cell line not stated, FIG. 5D): reversed

CC(C)C[C@@H](C=O)NC(=O)[C@H](CC(C)C)NC(=O)[C@H](CC(C)C)NC(=O)OCc1ccccc1 [MG132, reference compound] (Cbz-Leu-Leu-Leu-aldehyde)
IC50 (NF-κB activation): 3 µM | effect on reduction of ZFP91 level in response to Compound A or Compound B (ZFP91 [1]): blocked | effect on ZFP91 degradation induced by Compound A (ZFP91 [3]; Focus, 2D): block; also recorded: inhibited | effect on ZFP91 degradation induced by Compound A (ZFP91 [3]; JHH4, 2D): block; also recorded: inhibited | effect on reduction of ZFP91 level in response to treatment compounds (ZFP91 [6]; SNB19 cells): blocked | effect on reduction of ZFP91 level in response to treatment compounds (ZFP91 [6]; U87 cells): blocked

NS(=O)(=O)OC[C@@H]1C[C@@H](n2ccc3c(N[C@H]4CCc5ccccc54)ncnc32)C[C@@H]1O [MLN4924, reference compound]
effect on reduction of ZFP91 level in response to Compound A or Compound B (ZFP91 [1]): blocked | effect on ZFP91 degradation induced by Compound A (ZFP91 [3]; Focus, 2D): inhibited | effect on ZFP91 degradation induced by Compound A (ZFP91 [3]; Focus, 2D, listed as MLN): block | effect on ZFP91 degradation induced by Compound A (ZFP91 [3]; JHH4, 2D): inhibited | effect on ZFP91 degradation induced by Compound A (ZFP91 [4]; JHH4, 2D, 10 μM for 1 hour, then 5 μM Compound A for 6 hours, FIG. 5A, listed as MLN): block | effect on reduction of ZFP91 level in response to treatment compounds (ZFP91 [6]; SNB19 cells): blocked | effect on reduction of ZFP91 level in response to treatment compounds (ZFP91 [6]; U87 cells): blocked

Source: US20170242014A1, “METHODS FOR TREATING SOLID TUMORS AND THE USE OF BIOMARKERS AS A PREDICTOR OF CLINICAL SENSITIVITY TO IMMUNOMODULATORY THERAPIES” (CELGENE CORPORATON, priority 2014, published 2017)
